Test results reported in patent US20230365546A1, “5-SUBSTITUTED INDOLE 3-AMIDE DERIVATIVES, PREPARATION METHOD AND USE THEREOF” (ORIGIANT PHARMACEUTICAL CO., LTD, priority 2020, published 2023).
Read-outs that look alike come from different tables or passages of the source.

Legend:
Abl(Y253F)(h) = Abl(Y253F)(h) (Homo sapiens (Human), UniProt P00519, Y253F); experiment: Kinase Profiler 10 μM panel
Protocol: (§1) In vitro kinase assays were conducted using Kinase Profiler services provided by Eurofins. The experimental method was as follows: the small molecule compound to be tested (0.001-10 μM), the protein kinase to be tested were incubated with a buffer containing substrate, 10 mM magnesium acetate, and [γ-^33P-ATP], the reaction was started by adding Mg\TPmix, after incubation for a period of time at room temperature, a 3% phosphate solution was added to the buffer to stop the reaction. Subsequently, 10 μL of the reaction mixture was quantitatively pipetted onto P30 filter paper, which was washed three times with 75 mM phosphate solution and then once with methanol. The P30 filter paper was air-dried and scintillation fluid was added for scintillation counting.

Abl (H396P)(h) = Abl (H396P)(h) (Homo sapiens (Human), UniProt P00519, H396P); experiment: Kinase Profiler 10 μM panel
Protocol: as §1

SAPK3(h) = SAPK3(h) (Homo sapiens (Human), UniProt P53778); experiment: Kinase Profiler 10 μM panel
Sequence of SAPK3(h) (P53778 whole entry): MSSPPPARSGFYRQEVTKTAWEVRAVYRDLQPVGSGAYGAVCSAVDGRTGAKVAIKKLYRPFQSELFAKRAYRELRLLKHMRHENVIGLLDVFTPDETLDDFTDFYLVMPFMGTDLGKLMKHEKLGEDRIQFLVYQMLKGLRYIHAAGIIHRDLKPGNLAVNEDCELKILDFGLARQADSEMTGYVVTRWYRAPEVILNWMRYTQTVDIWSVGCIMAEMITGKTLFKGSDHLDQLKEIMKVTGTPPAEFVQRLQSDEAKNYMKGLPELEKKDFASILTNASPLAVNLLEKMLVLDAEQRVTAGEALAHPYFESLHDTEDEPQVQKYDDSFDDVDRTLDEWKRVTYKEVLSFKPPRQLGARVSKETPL
Protocol: as §1

BIKe(h) = BIKe(h) (Homo sapiens (Human), UniProt Q9NSY1); experiment: Kinase Profiler 10 μM panel
Protocol: as §1

eEF-2K(h) = eEF-2K(h) (Homo sapiens (Human), UniProt O00418); experiment: Kinase Profiler 10 μM panel
Protocol: as §1

CDKL2(h) = CDKL2(h) (Homo sapiens (Human), UniProt Q92772); experiment: Kinase Profiler 10 μM panel
Protocol: as §1

TTK(h) = TTK(h) (Homo sapiens (Human), UniProt P33981); experiment: Kinase Profiler 10 μM panel
Protocol: as §1

ROCK-II(h) = ROCK-II(h) (Homo sapiens (Human), UniProt O75116); experiment: Kinase Profiler 10 μM panel
Protocol: as §1

PKR(h) = PKR(h) (Homo sapiens (Human), UniProt P19525); experiment: Kinase Profiler 10 μM panel
Protocol: as §1

CRIK(h) = CRIK(h) (Homo sapiens (Human), UniProt O14578); experiment: Kinase Profiler 10 μM panel
Protocol: as §1

MKK4(m) = MKK4(m) (Mus musculus (Mouse), UniProt P47809); experiment: Kinase Profiler 10 μM panel
Sequence of MKK4(m) (P47809 whole entry): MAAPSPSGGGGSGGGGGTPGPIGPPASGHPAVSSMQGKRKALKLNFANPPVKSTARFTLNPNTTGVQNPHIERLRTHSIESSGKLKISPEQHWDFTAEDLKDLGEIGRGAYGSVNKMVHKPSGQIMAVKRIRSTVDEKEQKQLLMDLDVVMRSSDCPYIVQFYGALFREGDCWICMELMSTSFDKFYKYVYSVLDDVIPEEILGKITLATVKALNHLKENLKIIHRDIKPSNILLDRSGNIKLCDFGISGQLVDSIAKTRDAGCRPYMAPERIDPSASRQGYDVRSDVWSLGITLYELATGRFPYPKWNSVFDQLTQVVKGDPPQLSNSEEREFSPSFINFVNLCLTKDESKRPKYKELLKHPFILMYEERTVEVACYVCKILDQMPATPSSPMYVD
Protocol: as §1

CDK17/cyclinY(h) = CDK17/cyclinY(h) (Homo sapiens (Human), UniProt Q00537); experiment: Kinase Profiler 10 μM panel
Protocol: as §1

HT-29 cells = experiment: Protection against programmed necrosis of HT-29 cells (TNF α/Smac mimetic/Z-VAD-FMK, CCK8); type: cell-based; conditions: Homo sapiens
ALK(h) = ALK(h) (Homo sapiens (Human), UniProt Q9UM73); experiment: Kinase Profiler 10 μM panel
Protocol: as §1

Blk(m) = Blk(m) (Mus musculus (Mouse), UniProt P16277); experiment: Kinase Profiler 10 μM panel
Sequence of Blk(m) (P16277 whole entry): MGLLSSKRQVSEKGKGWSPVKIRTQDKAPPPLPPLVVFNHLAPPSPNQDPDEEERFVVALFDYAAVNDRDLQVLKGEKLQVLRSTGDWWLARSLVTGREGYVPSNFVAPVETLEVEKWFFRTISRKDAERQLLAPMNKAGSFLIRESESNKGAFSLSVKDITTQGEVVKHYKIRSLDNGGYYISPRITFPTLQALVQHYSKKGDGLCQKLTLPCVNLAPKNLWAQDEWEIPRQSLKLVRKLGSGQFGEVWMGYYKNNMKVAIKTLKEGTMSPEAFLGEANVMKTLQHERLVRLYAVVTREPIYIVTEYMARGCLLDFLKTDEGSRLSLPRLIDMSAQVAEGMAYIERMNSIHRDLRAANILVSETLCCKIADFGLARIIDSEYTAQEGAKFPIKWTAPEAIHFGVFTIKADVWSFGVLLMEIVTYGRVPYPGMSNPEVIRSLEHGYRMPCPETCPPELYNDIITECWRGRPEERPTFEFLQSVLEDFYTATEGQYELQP
Protocol: as §1

CDK14/cyclinY(h) = CDK14/cyclinY(h) (Homo sapiens (Human), UniProt O94921); experiment: Kinase Profiler 10 μM panel
Protocol: as §1

PKBα(h) = PKBα(h) (Homo sapiens (Human), UniProt P31749); experiment: Kinase Profiler 10 μM panel
Protocol: as §1

MELK(h) = MELK(h) (Homo sapiens (Human), UniProt Q14680); experiment: Kinase Profiler 10 μM panel
Protocol: as §1

TAO2(h) = TAO2(h) (Homo sapiens (Human), UniProt Q9UL54); experiment: Kinase Profiler 10 μM panel
Sequence of TAO2(h) (Q9UL54 whole entry): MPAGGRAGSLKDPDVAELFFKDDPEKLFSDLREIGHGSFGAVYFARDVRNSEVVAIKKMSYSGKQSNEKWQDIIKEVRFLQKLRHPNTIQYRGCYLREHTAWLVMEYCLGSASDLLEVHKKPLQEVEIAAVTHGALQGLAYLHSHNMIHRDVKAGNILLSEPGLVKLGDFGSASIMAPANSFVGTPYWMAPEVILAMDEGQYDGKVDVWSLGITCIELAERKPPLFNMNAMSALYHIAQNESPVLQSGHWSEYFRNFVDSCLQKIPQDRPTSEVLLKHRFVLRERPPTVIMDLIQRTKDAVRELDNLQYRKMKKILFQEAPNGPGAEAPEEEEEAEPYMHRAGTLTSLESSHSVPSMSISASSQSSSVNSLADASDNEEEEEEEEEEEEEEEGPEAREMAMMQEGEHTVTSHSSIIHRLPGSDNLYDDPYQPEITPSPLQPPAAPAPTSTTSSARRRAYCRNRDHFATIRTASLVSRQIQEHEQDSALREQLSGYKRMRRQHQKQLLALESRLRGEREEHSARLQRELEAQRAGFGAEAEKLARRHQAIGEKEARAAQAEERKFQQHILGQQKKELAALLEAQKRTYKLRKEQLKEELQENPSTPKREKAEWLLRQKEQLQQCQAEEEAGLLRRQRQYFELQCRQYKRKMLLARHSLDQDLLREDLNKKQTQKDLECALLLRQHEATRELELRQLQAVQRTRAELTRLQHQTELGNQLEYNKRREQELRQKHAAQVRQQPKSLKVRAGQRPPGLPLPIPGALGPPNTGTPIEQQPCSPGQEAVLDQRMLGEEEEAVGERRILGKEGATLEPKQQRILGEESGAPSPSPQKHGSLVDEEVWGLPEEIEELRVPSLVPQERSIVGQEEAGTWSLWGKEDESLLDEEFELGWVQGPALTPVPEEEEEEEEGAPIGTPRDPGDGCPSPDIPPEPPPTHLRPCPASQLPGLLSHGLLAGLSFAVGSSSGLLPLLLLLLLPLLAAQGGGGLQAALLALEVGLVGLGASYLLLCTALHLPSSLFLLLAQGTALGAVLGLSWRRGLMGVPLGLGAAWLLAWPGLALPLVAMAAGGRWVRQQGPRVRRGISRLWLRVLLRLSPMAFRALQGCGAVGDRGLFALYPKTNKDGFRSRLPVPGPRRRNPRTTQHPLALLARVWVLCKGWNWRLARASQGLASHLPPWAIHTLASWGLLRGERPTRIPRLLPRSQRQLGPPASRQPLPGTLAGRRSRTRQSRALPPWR
Protocol: as §1

A-Raf(h) = A-Raf(h) (Homo sapiens (Human), UniProt P10398); experiment: Kinase Profiler 10 μM panel
Sequence of A-Raf(h) (P10398 whole entry): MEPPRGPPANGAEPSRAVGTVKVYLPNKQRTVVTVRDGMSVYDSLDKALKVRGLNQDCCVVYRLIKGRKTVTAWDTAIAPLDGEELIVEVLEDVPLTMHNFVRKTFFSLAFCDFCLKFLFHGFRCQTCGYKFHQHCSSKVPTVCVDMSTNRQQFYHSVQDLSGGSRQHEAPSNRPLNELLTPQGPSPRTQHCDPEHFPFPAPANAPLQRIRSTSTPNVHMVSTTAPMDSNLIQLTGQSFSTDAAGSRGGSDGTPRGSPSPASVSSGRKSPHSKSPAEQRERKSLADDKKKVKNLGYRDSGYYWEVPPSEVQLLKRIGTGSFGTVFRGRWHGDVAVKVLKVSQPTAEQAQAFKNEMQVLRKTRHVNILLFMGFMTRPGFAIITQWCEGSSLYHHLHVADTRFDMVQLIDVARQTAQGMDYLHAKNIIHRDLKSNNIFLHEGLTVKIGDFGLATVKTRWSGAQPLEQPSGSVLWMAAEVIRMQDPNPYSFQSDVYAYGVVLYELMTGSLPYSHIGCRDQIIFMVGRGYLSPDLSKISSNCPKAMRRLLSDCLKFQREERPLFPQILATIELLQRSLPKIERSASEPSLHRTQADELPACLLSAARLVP
Protocol: as §1

Src(T341M)(h) = Src(T341M)(h) (Homo sapiens (Human), UniProt P12931, T341M); experiment: Kinase Profiler 10 μM panel
Protocol: as §1

PI3KC2g(h) = PI3KC2g(h) (Homo sapiens (Human), UniProt O75747); experiment: Kinase Profiler 10 μM panel
Sequence of PI3KC2g(h) (O75747 whole entry): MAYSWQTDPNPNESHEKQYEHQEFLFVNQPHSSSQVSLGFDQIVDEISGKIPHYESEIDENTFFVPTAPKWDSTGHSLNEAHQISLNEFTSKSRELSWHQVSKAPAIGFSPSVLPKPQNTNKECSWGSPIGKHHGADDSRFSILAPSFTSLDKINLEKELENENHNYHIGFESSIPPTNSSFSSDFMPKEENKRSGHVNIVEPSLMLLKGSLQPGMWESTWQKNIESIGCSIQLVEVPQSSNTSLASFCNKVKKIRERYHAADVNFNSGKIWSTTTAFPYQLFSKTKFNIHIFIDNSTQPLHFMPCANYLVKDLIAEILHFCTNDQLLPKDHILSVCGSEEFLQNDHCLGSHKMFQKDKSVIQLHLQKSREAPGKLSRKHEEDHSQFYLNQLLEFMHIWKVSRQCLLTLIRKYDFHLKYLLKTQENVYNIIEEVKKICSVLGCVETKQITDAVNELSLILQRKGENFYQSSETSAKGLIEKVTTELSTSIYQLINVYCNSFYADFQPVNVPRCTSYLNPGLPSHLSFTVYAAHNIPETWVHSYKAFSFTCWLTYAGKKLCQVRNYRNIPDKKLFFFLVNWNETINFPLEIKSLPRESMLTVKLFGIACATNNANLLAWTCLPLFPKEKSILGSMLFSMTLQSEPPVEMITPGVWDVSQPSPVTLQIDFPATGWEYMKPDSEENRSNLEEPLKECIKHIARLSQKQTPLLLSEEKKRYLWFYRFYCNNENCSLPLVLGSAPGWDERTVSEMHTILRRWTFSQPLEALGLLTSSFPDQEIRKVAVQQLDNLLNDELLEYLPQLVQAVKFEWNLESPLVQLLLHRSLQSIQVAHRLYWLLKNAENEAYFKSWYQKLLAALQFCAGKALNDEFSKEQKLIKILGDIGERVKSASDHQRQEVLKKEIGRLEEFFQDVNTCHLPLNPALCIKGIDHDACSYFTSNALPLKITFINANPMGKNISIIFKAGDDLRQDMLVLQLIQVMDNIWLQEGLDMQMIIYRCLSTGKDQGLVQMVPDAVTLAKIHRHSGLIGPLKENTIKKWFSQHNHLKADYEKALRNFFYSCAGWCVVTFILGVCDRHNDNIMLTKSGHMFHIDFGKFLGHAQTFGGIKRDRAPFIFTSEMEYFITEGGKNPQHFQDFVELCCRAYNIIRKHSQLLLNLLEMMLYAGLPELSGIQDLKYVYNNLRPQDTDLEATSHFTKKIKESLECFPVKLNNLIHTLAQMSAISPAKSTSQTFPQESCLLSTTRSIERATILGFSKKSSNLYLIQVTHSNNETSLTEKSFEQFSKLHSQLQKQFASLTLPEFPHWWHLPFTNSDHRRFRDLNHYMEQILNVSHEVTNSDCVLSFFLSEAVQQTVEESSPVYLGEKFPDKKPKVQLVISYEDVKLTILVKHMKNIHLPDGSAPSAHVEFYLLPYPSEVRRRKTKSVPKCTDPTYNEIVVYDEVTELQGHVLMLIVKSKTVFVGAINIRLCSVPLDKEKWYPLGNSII
Protocol: as §1

SIK2(h) = SIK2(h) (Homo sapiens (Human), UniProt Q9H0K1); experiment: Kinase Profiler 10 μM panel
Protocol: as §1

MAPKAP-K2(h) = MAPKAP-K2(h) (Homo sapiens (Human), UniProt P49137); experiment: Kinase Profiler 10 μM panel
Sequence of MAPKAP-K2(h) (P49137 whole entry): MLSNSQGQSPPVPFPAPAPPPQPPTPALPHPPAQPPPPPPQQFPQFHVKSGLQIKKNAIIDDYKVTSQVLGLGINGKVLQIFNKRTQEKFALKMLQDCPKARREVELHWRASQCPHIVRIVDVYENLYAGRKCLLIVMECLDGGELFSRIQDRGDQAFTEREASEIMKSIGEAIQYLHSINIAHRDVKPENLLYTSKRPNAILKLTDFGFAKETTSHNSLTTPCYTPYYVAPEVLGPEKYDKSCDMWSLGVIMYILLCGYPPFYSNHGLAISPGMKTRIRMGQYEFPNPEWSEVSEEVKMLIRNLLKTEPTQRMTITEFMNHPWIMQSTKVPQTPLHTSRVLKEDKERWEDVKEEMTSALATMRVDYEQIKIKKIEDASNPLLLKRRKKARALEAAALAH
Protocol: as §1

PDGFRα(V561D)(h) = PDGFRα(V561D)(h) (Homo sapiens (Human), UniProt P16234, V561D); experiment: Kinase Profiler 10 μM panel
Protocol: as §1

GRK5(h) = GRK5(h) (Homo sapiens (Human), UniProt P34947); experiment: Kinase Profiler 10 μM panel
Protocol: as §1

HIPK2(h) = HIPK2(h) (Homo sapiens (Human), UniProt Q9H2X6); experiment: Kinase Profiler 10 μM panel
Protocol: as §1

[1] = TNF α/Smac mimetic/Z-VAD-FMK induced 24 h, CCK8, read-out: HT-29 (EC50)
[2] = TSZ-induced, FIG. 3, read-out: EC50 value, programmed necrosis model of HT-29

For `C[C@H](NC(=O)c1c[nH]c2ccc(-c3ccc4nc(NC(=O)C5CC5)sc4c3)cc12)c1cccc(F)c1` [Compound 34, (S)-5-(2-(cyclopropanecarboxamido)benzo[d]thiazol-6-yl)-N-(1-(3-fluorophenyl)ethyl)-1H-indole-3-carboxamide], which Inhibition ratio (Abl(Y253F)(h)) is on record?
The Inhibition ratio was 95%.

What about the Inhibition ratio (Abl (H396P)(h)) of the same compound?
Its Inhibition ratio is 98%.

And the Inhibition ratio (SAPK3(h))?
Its Inhibition ratio is 84%.

What about the Inhibition ratio (BIKe(h)) of the same compound?
Its Inhibition ratio is 8%.

And the Inhibition ratio (eEF-2K(h))?
Its Inhibition ratio is −41%.

And the Inhibition ratio (CDKL2(h))?
The Inhibition ratio was 68%.

And the Inhibition ratio (TTK(h))?
Its Inhibition ratio is 55%.

What about the Inhibition ratio (ROCK-II(h)) of the same compound?
The Inhibition ratio was 11%.

What about the Inhibition ratio (PKR(h)) of the same compound?
Its Inhibition ratio is 11%.

And the Inhibition ratio (CRIK(h))?
Its Inhibition ratio is 5%.

What about the Inhibition ratio (MKK4(m)) of the same compound?
The Inhibition ratio was 9%.

What about the Inhibition ratio (CDK17/cyclinY(h)) of the same compound?
Its Inhibition ratio is −11%.

What about the EC50 (HT-29 cells; [1]) of the same compound?
The EC50 was under 1 nM.

What about the EC50 (HT-29 cells; [2]) of the same compound?
Its EC50 is 0.117 nM.

And the Inhibition ratio (ALK(h))?
The Inhibition ratio was 48%.

What about the Inhibition ratio (Blk(m)) of the same compound?
The Inhibition ratio was 65%.

And the Inhibition ratio (CDK14/cyclinY(h))?
Its Inhibition ratio is 47%.

What about the Inhibition ratio (PKBα(h)) of the same compound?
The Inhibition ratio was 11%.

What about the Inhibition ratio (MELK(h)) of the same compound?
The Inhibition ratio was 36%.

And the Inhibition ratio (TAO2(h))?
Its Inhibition ratio is 58%.

And the Inhibition ratio (A-Raf(h))?
The Inhibition ratio was −1%.

And the Inhibition ratio (Src(T341M)(h))?
Its Inhibition ratio is 36%.

What about the Inhibition ratio (PI3KC2g(h)) of the same compound?
The Inhibition ratio was 76%.

And the Inhibition ratio (SIK2(h))?
Its Inhibition ratio is 39%.

And the Inhibition ratio (MAPKAP-K2(h))?
The Inhibition ratio was −7%.

And the Inhibition ratio (PDGFRα(V561D)(h); PDGFRα(V561D)(h))?
The Inhibition ratio was 99%.

What about the Inhibition ratio (GRK5(h)) of the same compound?
Its Inhibition ratio is 0%.

And the Inhibition ratio (HIPK2(h))?
The Inhibition ratio was 66%.

`C[C@H](NC(=O)c1cn(C)c2ccc(-c3ccn4nc(NC(=O)C5CC5)nc4c3)cc12)c1cccc(F)c1` [Compound 94, (S)-5-(2-(cyclopropanecarboxamido)-[1,2,4]triazolo[1,5-a]pyridin-7-yl)-N-(1-(3-fluorophenyl)ethyl)-1-methyl-1H-indole-3-carboxamide] was tested. Which Inhibition ratio/% (Abl(Y253F)(h)) did it give?
Its Inhibition ratio/% is 23%.

What about the Inhibition ratio/% (Abl (H396P)(h)) of the same compound?
Its Inhibition ratio/% is 34%.

What about the Inhibition ratio/% (SAPK3(h)) of the same compound?
Its Inhibition ratio/% is 46%.

What about the Inhibition ratio/% (BIKe(h)) of the same compound?
The Inhibition ratio/% was −2%.

And the Inhibition ratio/% (eEF-2K(h))?
Its Inhibition ratio/% is 26%.

What about the Inhibition ratio/% (CDKL2(h)) of the same compound?
The Inhibition ratio/% was 62%.

What about the Inhibition ratio/% (TTK(h)) of the same compound?
The Inhibition ratio/% was 13%.

And the Inhibition ratio/% (ROCK-II(h))?
Its Inhibition ratio/% is 7%.

What about the Inhibition ratio/% (PKR(h)) of the same compound?
Its Inhibition ratio/% is 19%.

And the Inhibition ratio/% (CRIK(h))?
The Inhibition ratio/% was −7%.

What about the Inhibition ratio/% (MKK4(m)) of the same compound?
Its Inhibition ratio/% is 27%.

And the Inhibition ratio/% (CDK17/cyclinY(h))?
The Inhibition ratio/% was 70%.

What about the EC50 (HT-29 cells; [1]) of the same compound?
Its EC50 is under 1 nM.

What about the EC50 (HT-29 cells; [2]) of the same compound?
Its EC50 is 0.012 nM.

What about the Inhibition ratio/% (ALK(h)) of the same compound?
Its Inhibition ratio/% is −7%.

And the Inhibition ratio/% (Blk(m))?
Its Inhibition ratio/% is 77%.

What about the Inhibition ratio/% (CDK14/cyclinY(h)) of the same compound?
The Inhibition ratio/% was 55%.

And the Inhibition ratio/% (PKBα(h))?
Its Inhibition ratio/% is −11%.

What about the Inhibition ratio/% (MELK(h)) of the same compound?
Its Inhibition ratio/% is 1%.

What about the Inhibition ratio/% (TAO2(h)) of the same compound?
The Inhibition ratio/% was −14%.

And the Inhibition ratio/% (A-Raf(h))?
The Inhibition ratio/% was 10%.

And the Inhibition ratio/% (Src(T341M)(h))?
Its Inhibition ratio/% is −6%.

And the Inhibition ratio/% (PI3KC2g(h))?
Its Inhibition ratio/% is 24%.

What about the Inhibition ratio/% (SIK2(h)) of the same compound?
Its Inhibition ratio/% is −4%.

What about the Inhibition ratio/% (MAPKAP-K2(h)) of the same compound?
Its Inhibition ratio/% is −1%.

And the Inhibition ratio/% (PDGFRα(V561D)(h); printed in Table 4 as PDGFRβ (V561D)(h))?
The Inhibition ratio/% was 38%.

What about the Inhibition ratio/% (GRK5(h)) of the same compound?
The Inhibition ratio/% was 21%.

And the Inhibition ratio/% (HIPK2(h))?
Its Inhibition ratio/% is 36%.
